How the values were obtained:
[1] = Induction of anti-CD3/CD28 antibodies-stimulated human T cell activation at 1 uM assessed fold increase in IL-2 secretion measured by ELISA assay; format: functional, T cell line
[2] = Induction of anti-CD3/CD28 antibodies-stimulated human T cell activation at 0.3 uM assessed fold increase in IL-2 secretion measured by ELISA assay; format: functional, T cell line
[3] = Induction of anti-CD3/CD28 antibodies-stimulated human T cell activation at 0.3 uM assessed fold increase in CD25 expression measured by ELISA assay; format: functional, T cell line
[4] = Induction of anti-CD3/CD28 antibodies-stimulated human T cell activation at 1 uM assessed fold increase in CD25 expression measured by ELISA assay; format: functional, T cell line
[5] = biological target: E3 ubiquitin-protein ligase CBL-B (Homo sapiens, UniProt Q13191); assay: Inhibition of N-terminal Avi-tagged human CBL-B (36 to 427 residues) incubated with 60 nM Src kinase for 1.5 hrs followed by incubation with fluorescently labeled UbcH5B-Ub for 1 hr and measured by TR-FRET assay; format: single protein
[6] = Induction of anti-CD3 antibodies-stimulated human T cell activation at 1 uM assessed fold increase in CD25 expression measured by ELISA assay; format: functional, T cell line; also: reference of the scale not given here
[7] = Induction of anti-CD3 antibodies-stimulated human T cell activation at 1 uM assessed fold increase in IL-2 secretion measured by ELISA assay; format: functional, T cell line; also: reference of the scale not given here

E3 ubiquitin-protein ligase CBL-B, sequence (Q13191 whole entry, the tested form may be a part): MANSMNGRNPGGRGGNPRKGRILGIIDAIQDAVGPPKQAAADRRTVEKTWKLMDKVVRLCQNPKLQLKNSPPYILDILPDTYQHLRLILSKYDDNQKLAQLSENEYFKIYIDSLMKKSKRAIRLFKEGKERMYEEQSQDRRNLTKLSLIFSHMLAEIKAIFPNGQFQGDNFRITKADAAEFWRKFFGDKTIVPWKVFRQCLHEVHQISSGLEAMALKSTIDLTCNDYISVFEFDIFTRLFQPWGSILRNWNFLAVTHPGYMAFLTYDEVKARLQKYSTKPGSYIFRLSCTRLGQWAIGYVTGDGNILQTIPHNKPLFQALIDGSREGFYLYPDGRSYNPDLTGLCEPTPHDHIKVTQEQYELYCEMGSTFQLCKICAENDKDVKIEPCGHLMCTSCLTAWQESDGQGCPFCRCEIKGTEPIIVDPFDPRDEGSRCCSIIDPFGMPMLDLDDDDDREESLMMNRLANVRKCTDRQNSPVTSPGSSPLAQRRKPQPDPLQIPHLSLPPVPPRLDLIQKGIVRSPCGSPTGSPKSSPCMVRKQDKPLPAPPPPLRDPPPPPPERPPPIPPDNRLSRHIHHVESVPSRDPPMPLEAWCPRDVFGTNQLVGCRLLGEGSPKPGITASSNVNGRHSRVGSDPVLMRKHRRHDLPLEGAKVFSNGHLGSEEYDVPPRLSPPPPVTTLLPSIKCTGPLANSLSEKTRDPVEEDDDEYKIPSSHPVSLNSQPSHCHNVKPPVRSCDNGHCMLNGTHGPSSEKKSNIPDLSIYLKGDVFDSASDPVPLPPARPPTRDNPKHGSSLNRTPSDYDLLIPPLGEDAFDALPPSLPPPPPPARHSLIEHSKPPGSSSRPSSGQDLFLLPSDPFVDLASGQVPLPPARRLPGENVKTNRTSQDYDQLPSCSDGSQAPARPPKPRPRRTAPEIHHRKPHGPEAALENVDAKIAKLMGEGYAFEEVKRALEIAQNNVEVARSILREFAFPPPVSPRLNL

Row | SMILES | IC50 [5] | fold change (FC) [1] | fold change (FC) [2] | fold change (FC) [3] | fold change (FC) [4] | fold change (FC) [6] | fold change (FC) [7]
1 | Cn1cnnc1CC1(c2cccc(N3Cc4c(cc(CN5CCC(C(F)F)CC5)cc4C(F)(F)F)C3=O)c2)COC1 | < 100 nM | >=7.5 | 5 | 1.31 | 1.31 | >=1.001 | 0.151
2 | Cn1cnnc1CC1(c2cccc(N3Cc4c(cc(CN5C6CCCC5CC6)cc4C(F)(F)F)C3=O)c2)COC1 | < 100 nM | >=7.5 | >=7.5 | >=1.76 | >=1.76 | >=1.001 | >=0.201
3 | Cn1cnnc1CC1(c2cccc(N3Cc4c(cccc4C(F)(F)F)C3=O)c2)CC(F)(F)C1 | < 100 nM | 5 | 2.51 | 1.01 | 1.01 | >=1.001 | >=0.201
4 | C[C@@H]1CN(C)CCN1c1cc2c(c(C(F)(F)F)c1)CN(c1cccc(C3(Cc4nncn4C)COC3)c1)C2=O | < 100 nM | >=7.5 | 2.51 | 1.01 | 1.31 | >=1.001 | 0.151
5 | Cn1cnnc1CC1(c2cccc(N3Cc4c(ccnc4C(F)(F)F)C3=O)c2)COC1 | < 100 nM | 1.01 | 1.01 | 1.01 | 1.01 | 0.601 | <=0.05
6 | Cn1cnnc1C[C@@]1(c2cccc(N3Cc4c(cc(CN5CCC6(CC6)C5)cc4C(F)(F)F)C3=O)c2)CCOC1 | < 100 nM | >=7.5 | 2.51 | 1.01 | 1.01 | 0.801 | 0.101
7 | Cn1cnnc1CC1(c2cccc(N3Cc4c(cc(N5CC6(C5)CC(F)(F)C6)cc4C(F)(F)F)C3=O)c2)COC1 | < 100 nM | >=7.5 | 5 | 1.01 | 1.31 | >=1.001 | 0.101
8 | Cn1cnnc1CC1(c2cccc(N3Cc4c(cc(CN5CCCc6c5cnn6C)cc4C(F)(F)F)C3=O)c2)COC1 | < 100 nM | >=7.5 | 5 | 1.01 | 1.01 | >=1.001 | >=0.201
9 | COC[C@@H]1CN(Cc2cc3c(c(C(F)(F)F)c2)CN(c2cccc(C4(Cc5nncn5C)COC4)c2)C3=O)CCO1 | < 100 nM |  |  |  |  |  | 
10 | CN(c1cc2c(c(C(F)(F)F)c1)CN(c1cccc([C@@](C)(F)C(F)(F)c3nncn3C)c1)C2=O)[C@H]1CNC[C@@H]1F | < 100 nM |  |  |  |  |  | 
11 | CN(c1cc2c(c(C(F)(F)F)c1)CN(c1cccc([C@@](C)(F)C(F)(F)c3nncn3C)c1)C2=O)[C@@H]1CNC[C@H]1F | < 100 nM |  |  |  |  |  | 
12 | Cn1cnnc1CC1(c2cccc(N3Cc4c(cc(CN5CCc6cnccc6C5)cc4C(F)(F)F)C3=O)c2)COC1 | < 100 nM |  |  |  |  |  | 
13 | Cn1cnnc1CC1(c2cccc(N3Cc4c(cc(CN5CC[C@H](F)[C@@H](F)C5)cc4C(F)(F)F)C3=O)c2)COC1 | < 100 nM |  |  |  |  |  | 
14 | Cn1cnnc1CC1(c2cccc(N3Cc4c(cc(CN5Cc6cccc(C#N)c6C5)cc4C(F)(F)F)C3=O)c2)COC1 | < 100 nM |  |  |  |  |  | 
15 | Cn1cnnc1CC1(c2cccc(N3Cc4c(cc(CN5CC[C@@H](F)[C@H](F)C5)cc4C(F)(F)F)C3=O)c2)COC1 | < 100 nM |  |  |  |  |  | 
16 | Cc1cn(C)c(SC(C)c2ccnc(NC(=O)c3ccc4ccccc4n3)c2)n1 (centres undefined) | > 10000 nM |  |  |  |  |  | 
17 | Cn1cnnc1CC1(c2cccc(N3Cc4c(cc(CN5Cc6cccc(Cl)c6C5)cc4C(F)(F)F)C3=O)c2)COC1 | < 100 nM |  |  |  |  |  | 
18 | Cn1cnnc1CC1(c2cccc(N3Cc4c(cc(C5CCCOC5)cc4C(F)(F)F)C3=O)c2)COC1 (centres undefined) | < 100 nM |  |  |  |  |  | 
19 | Cn1cnnc1CC1(c2cccc(N3Cc4c(cc(CN5CCOC6(CCOC6)C5)cc4C(F)(F)F)C3=O)c2)COC1 (centres undefined) | < 100 nM |  |  |  |  |  | 

Now from value to compound, other results behind:

Row | IC50 [5] | SMILES | fold change (FC) [1] | fold change (FC) [2] | fold change (FC) [3] | fold change (FC) [4] | fold change (FC) [6] | fold change (FC) [7]
20 | < 100 nM | Cn1cnnc1CC1(c2cccc(NC(=O)c3cc(OC(F)F)cc(C4CC4)n3)c2)COC1 | >=7.5 | 5 | 1.01 | 1.01 | >=1.001 | >=0.201
21 | < 100 nM | Cc1conc1CC1(c2cccc(NC(=O)c3cc(CN4CCC5(CC5)C4)nc(C4CC4)n3)c2)COC1 | >=7.5 | >=7.5 | 1.31 | 1.31 | >=1.001 | >=0.201
22 | < 100 nM | CCOc1cc(N2Cc3c(cc([C@H](C)N4CC[C@H](F)C4)cc3C(F)(F)F)C2=O)cc(C2(Cc3nncn3C)COC2)c1 | >=7.5 | 2.51 | 1.31 | 1.51 | >=1.001 | 0.151
23 | < 100 nM | Cn1cnnc1CC1(c2cccc(NC(=O)c3cc(N4CC(C(F)F)C4)nc(C4CC4)n3)c2)COC1 | >=7.5 | 2.51 | 1.01 | 1.01 | 0.801 | 0.101
24 | < 100 nM | CC1CN(c2cc3c(c(C(F)(F)F)c2)CN(c2cccc(C4(Cc5nncn5C)COC4)c2)C3=O)C1C (centres undefined) | 2.51 | 1.01 | 1.01 | 1.01 | 0.601 | 0.051
25 | < 100 nM | Cn1cnnc1CC1(c2cccc(N3Cc4c(cc(CN5CCC(C)(C#N)CC5)cc4C(F)(F)F)C3=O)c2)COC1 | >=7.5 | >=7.5 | 1.31 | 1.31 | >=1.001 | 0.151
26 | < 100 nM | CC[C@@H](c1cc2c(c(C(F)(F)F)c1)CN(c1cccc(C3(Cc4nncn4C)COC3)c1)C2=O)N1CC[C@H](F)C1 | >=7.5 | >=7.5 | 1.51 | 1.51 | >=1.001 | >=0.201
27 | < 100 nM | Cn1cnnc1CC1(c2cccc(N3Cc4c(cc(CN5CCC(F)(F)CC5)cc4C(F)(F)F)C3=O)c2)COC1 | >=7.5 | >=7.5 | 1.31 | 1.31 | >=1.001 | >=0.201
28 | < 100 nM | CC(C)C1CN(Cc2cc3c(c(C(F)(F)F)c2)CN(c2cccc(C4(Cc5nncn5C)COC4)c2)C3=O)CCO1 (centres undefined) |  |  |  |  |  | 
29 | < 100 nM | Cn1cnnc1CC1(c2cccc(N3Cc4c(cc(CN5CCOC6(CC6)C5)cc4C(F)(F)F)C3=O)c2)COC1 |  |  |  |  |  | 
30 | < 100 nM | Cn1cnnc1CC1(c2cccc(N3Cc4c(cc(CN5CCc6ncccc6C5)cc4C(F)(F)F)C3=O)c2)COC1 |  |  |  |  |  | 
31 | < 100 nM | Cn1cnnc1CC1(c2cccc(N3Cc4c(cc(CN5CCOC(C6CC6)C5)cc4C(F)(F)F)C3=O)c2)COC1 (centres undefined) |  |  |  |  |  | 
32 | < 100 nM | C[C@@H]1CN(Cc2cc3c(c(C(F)(F)F)c2)CN(c2cccc(-c4c(-c5nncn5C)cnn4C)c2)C3=O)C[C@H](C)O1 |  |  |  |  |  | 
33 | < 100 nM | Cn1cnnc1CC1(c2cccc(N3Cc4c(cc(CC5CNCCC5=O)cc4C(F)(F)F)C3=O)c2)COC1 (centres undefined) |  |  |  |  |  | 
34 | < 100 nM | Cc1cc(C(=O)Nc2cccc(C3(Cc4[nH]ncc4C)COC3)c2)nc(C2CC2)n1 |  |  |  |  |  | 
35 | < 100 nM | Cn1cnnc1CC1(c2cccc(N3Cc4c(cc(CN5CCc6cc(C#N)ccc6C5)cc4C(F)(F)F)C3=O)c2)COC1 |  |  |  |  |  | 
36 | > 10000 nM | Cc1nnnn1CC(C)c1cccc(NC(=O)c2cccc(C(F)(F)F)n2)c1 (centres undefined) |  |  |  |  |  | 
37 | < 100 nM | Cn1cnnc1CC1(c2cccc(N3Cc4c(cc(CN5CC[C@@H](c6ccccc6)C5)cc4C(F)(F)F)C3=O)c2)COC1 |  |  |  |  |  | 
38 | > 10000 nM | C[C@@H](Sc1nncn1C)c1ccc(F)c(N2Cc3c(cccc3C(F)(F)F)C2=O)c1 |  |  |  |  |  | 
39 | < 100 nM | Cn1cnnc1CC1(c2cccc(N3Cc4c(cc(CN5CC[C@@H]6OCC[C@@H]6C5)cc4C(F)(F)F)C3=O)c2)COC1 (relative stereo) |  |  |  |  |  | 
40 | < 100 nM | Cn1cnnc1CC1(c2cccc(N3Cc4c(cc(CN5CCC(F)(F)C(O)C5)cc4C(F)(F)F)C3=O)c2)COC1 (centres undefined) |  |  |  |  |  | 
41 | < 100 nM | C[C@@H]1CN(Cc2cc3c(c(C(F)(F)F)c2)CN(c2cccc(-c4c(-c5nncn5C)cnn4C)c2)C3=O)CCO1 |  |  |  |  |  | 
42 | < 100 nM | Cn1cnnc1CC1(c2cccc(N3Cc4c(cc(CN5CC[C@@H](F)[C@@H](F)C5)cc4C(F)(F)F)C3=O)c2)COC1 (relative stereo) |  |  |  |  |  | 
43 | < 100 nM | Cn1cnnc1CC1(c2cccc(N3Cc4c(cc(CN5CCOC(CCO)C5)cc4C(F)(F)F)C3=O)c2)COC1 (centres undefined) |  |  |  |  |  | 
44 | < 100 nM | Cn1cnnc1CC1(c2cccc(N3Cc4c(cc(CN5CCOC(CCF)C5)cc4C(F)(F)F)C3=O)c2)COC1 (centres undefined) |  |  |  |  |  | 
45 | < 100 nM | Cn1cnnc1CC1(c2cccc(N3Cc4c(cc(CN5Cc6ccc(Cl)cc6C5)cc4C(F)(F)F)C3=O)c2)COC1 |  |  |  |  |  | 
46 | < 100 nM | C[C@@H]1CN(Cc2cc3c(c(C(F)(F)F)c2)CN(c2cccc(C4(Cc5nncn5C)COC4)c2)C3=O)C[C@H](C)O1 |  |  |  |  |  | 
47 | < 100 nM | Cn1cnnc1CC1(c2cccc(N3Cc4c(cc(CN5CCO[C@H](C(F)(F)F)C5)cc4C(F)(F)F)C3=O)c2)COC1 |  |  |  |  |  | 
48 | < 100 nM | CC1=C(c2cc3c(c(C(F)(F)F)c2)CN(c2cccc(C4(Cc5nncn5C)COC4)c2)C3=O)CCO1 |  |  |  |  |  | 

— ChEMBL document CHEMBL5050844 (2019)
